# According to US20230321287A1, “RADIOLABELLED GRPR-ANTAGONIST FOR USE AS THERAGNOSTIC” (NOVARTIS AG, priority 2019, published 2023):
# Legend:
# clinical = conditions: human, tumor lesions; for SUV at 2.5 h / SUV at 1.5 h: non-dosimetry group; for SUV at 2.5 h: breast tumors, 2 h 30 minutes; for SUV at 1.5 h: prostatic tumors, 1 h 30 minutes
# Text: (§1) The primary objective was to characterize preliminary targeting properties of [68Ga] NeoB in patients with malignancies known to overexpress GRPR. The primary efficacy endpoints were: • Number and location of tumor lesions detected by [68Ga]-NeoBOMB1 overall and for each tumor type • Calculation of the ratio tumor/background standard uptake value (SUV) and %injected dose per gram of tissue (ID/g) and calculation of absorbed dose (mGy/MBq) in tumor overall and for each tumor type.
# (§2) The dosimetry group comprised only patients with breast cancer (N=2).
# GRPR [1] = target: T1, GRPR (Homo sapiens, UniProt P30550); assay: clinical; conditions: dosimetry group, breast cancer N=2
# T1 sequence (P30550 whole entry): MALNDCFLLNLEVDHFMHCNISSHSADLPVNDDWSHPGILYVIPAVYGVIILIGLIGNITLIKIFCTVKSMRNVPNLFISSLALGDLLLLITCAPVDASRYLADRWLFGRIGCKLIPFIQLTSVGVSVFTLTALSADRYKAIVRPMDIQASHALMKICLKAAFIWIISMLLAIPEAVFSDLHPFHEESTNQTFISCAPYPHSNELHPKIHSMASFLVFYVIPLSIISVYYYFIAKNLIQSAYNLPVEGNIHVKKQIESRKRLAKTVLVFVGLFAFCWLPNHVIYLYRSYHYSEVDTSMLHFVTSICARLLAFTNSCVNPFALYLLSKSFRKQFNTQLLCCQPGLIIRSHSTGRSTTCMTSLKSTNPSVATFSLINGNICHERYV
# Text: as §1, §2
# [2] = maximum injected activity of 250 MBq
# [3] = 6 patients with GIST; cited from earlier work
# GRPR [4] = target: T1, GRPR; assay: lesion-level analysis, [68Ga]-NeoB PET versus conventional imaging; type: in vivo; set-up: from tissue; host or cells: tumour lesions in patients (breast, prostate, colorectal, NSCL, SCL cancer), in vivo
# Protocol: PET/CT or PET/MRI imaging is performed after the compound 1 administration ideally at 2 h 30 min ±30 min.
# The spleen is the reference region to assess pathological [68Ga]-NeoB uptake.
# NeoB in patients with malignancies known to overexpress GRPR.
structure (smiles),measurement,setting,value
"CC(C)CC(CC(C)C)NC(=O)[C@H](Cc1cnc[nH]1)NC(=O)CNC(=O)[C@@H](NC(=O)[C@H](C)NC(=O)[C@H](Cc1c[nH]c2ccccc12)NC(=O)[C@H](CCC(N)=O)NC(=O)[C@@H](Cc1ccccc1)NC(=O)COCC(=O)Nc1ccc(CNC(=O)CN2CCN(CC(=O)O)CCN(CC(=O)O)CCN(CC(=O)O)CC2)cc1)C(C)C [[68Ga]-NeoB, metal not drawn]",SUV at 2.5 h,"clinical; overall (breast tumors), highest SUVmax, overall",23.1 SUV
same,SUV at 1.5 h,"clinical; overall locations (prostatic tumors), highest SUVmean, overall locations",11.6 SUV
same,SUV at 2 h,"clinical; soft tissue/visceral (breast cancer), highest SUVmax, dosimetry group, breast cancer N=2, soft tissue/visceral, 2 h",25.8 SUV
same,SUV at 4 h,"clinical; soft tissue/visceral (breast cancer), highest SUVmax, dosimetry group, breast cancer N=2, soft tissue/visceral",26.4 SUV
same,SUV at 0.25 h,"clinical; soft tissue/visceral (breast cancer), highest SUVmean, dosimetry group, breast cancer N=2, soft tissue/visceral, 15 minutes",9.24 SUV
same,SUV at 4 h,"clinical; soft tissue/visceral (breast cancer), highest SUVmean, dosimetry group, breast cancer N=2, soft tissue/visceral",9.14 SUV
same,SUV at 2.5 h,"clinical; soft tissue/visceral (breast tumors), highest SUVmax, soft tissue/visceral",22.1 SUV
same,SUV at 1.5 h,"clinical; soft tissue/visceral (prostatic tumors), highest SUVmean, soft tissue/visceral",14 SUV
same,time at which SUVmax values in lesions peaked,GRPR [1],4 h
same,time at which SUVmean values in lesions peaked,GRPR [1],15 min
same,estimated effective dose per exam,[2],7.25 mSv
same,"effective dose, mean",[3],0.029 ± 0.06 mSv/MBq
same,Number of lesions,"GRPR [4]; Breast N=5, [68Ga]-NeoB Negative, conventional imaging Positive",44
same,Number of lesions,"GRPR [4]; Breast N=5, [68Ga]-NeoB Negative, conventional imaging Total",44
same,Number of lesions,"GRPR [4]; Breast N=5, [68Ga]-NeoB Positive, conventional imaging Negative",37
same,Number of lesions,"GRPR [4]; Breast N=5, [68Ga]-NeoB Positive, conventional imaging Positive",48
same,Number of lesions,"GRPR [4]; Breast N=5, [68Ga]-NeoB Positive, conventional imaging Total",85
same,Number of lesions,"GRPR [4]; Breast N=5, [68Ga]-NeoB Total, conventional imaging Negative",37
same,Number of lesions,"GRPR [4]; Breast N=5, [68Ga]-NeoB Total, conventional imaging Positive",92
same,Number of lesions,"GRPR [4]; Breast N=5, [68Ga]-NeoB Total, conventional imaging Total",129
same,lesions identified by conventional imaging also identified by [68Ga]-NeoB,GRPR [4]; Breast cancer N=5,52.2%
same,Number of lesions,"GRPR [4]; Colorectal N=5, [68Ga]-NeoB Negative, conventional imaging Positive",43
same,Number of lesions,"GRPR [4]; Colorectal N=5, [68Ga]-NeoB Negative, conventional imaging Total",43
same,Number of lesions,"GRPR [4]; Colorectal N=5, [68Ga]-NeoB Positive, conventional imaging Negative",0
same,Number of lesions,"GRPR [4]; Colorectal N=5, [68Ga]-NeoB Positive, conventional imaging Positive",18
same,Number of lesions,"GRPR [4]; Colorectal N=5, [68Ga]-NeoB Positive, conventional imaging Total",18
same,Number of lesions,"GRPR [4]; Colorectal N=5, [68Ga]-NeoB Total, conventional imaging Negative",0
same,Number of lesions,"GRPR [4]; Colorectal N=5, [68Ga]-NeoB Total, conventional imaging Positive",61
same,Number of lesions,"GRPR [4]; Colorectal N=5, [68Ga]-NeoB Total, conventional imaging Total",61
same,lesions identified by conventional imaging also identified by [68Ga]-NeoB,GRPR [4]; Colorectal cancer N=5,29.5%
same,Number of lesions,"GRPR [4]; NSCL N=3, [68Ga]-NeoB Negative, conventional imaging Positive",20
same,Number of lesions,"GRPR [4]; NSCL N=3, [68Ga]-NeoB Negative, conventional imaging Total",20
same,Number of lesions,"GRPR [4]; NSCL N=3, [68Ga]-NeoB Positive, conventional imaging Negative",0
same,Number of lesions,"GRPR [4]; NSCL N=3, [68Ga]-NeoB Positive, conventional imaging Positive",10
same,Number of lesions,"GRPR [4]; NSCL N=3, [68Ga]-NeoB Positive, conventional imaging Total",10
same,Number of lesions,"GRPR [4]; NSCL N=3, [68Ga]-NeoB Total, conventional imaging Negative",0
same,Number of lesions,"GRPR [4]; NSCL N=3, [68Ga]-NeoB Total, conventional imaging Positive",30
same,Number of lesions,"GRPR [4]; NSCL N=3, [68Ga]-NeoB Total, conventional imaging Total",30
same,lesions identified by conventional imaging also identified by [68Ga]-NeoB,GRPR [4]; NSCL cancer N=3,33.3%
same,Number of lesions,"GRPR [4]; Prostate N=5, [68Ga]-NeoB Negative, conventional imaging Positive",59
same,Number of lesions,"GRPR [4]; Prostate N=5, [68Ga]-NeoB Negative, conventional imaging Total",59
same,Number of lesions,"GRPR [4]; Prostate N=5, [68Ga]-NeoB Positive, conventional imaging Negative",1
same,Number of lesions,"GRPR [4]; Prostate N=5, [68Ga]-NeoB Positive, conventional imaging Positive",10
same,Number of lesions,"GRPR [4]; Prostate N=5, [68Ga]-NeoB Positive, conventional imaging Total",11
same,Number of lesions,"GRPR [4]; Prostate N=5, [68Ga]-NeoB Total, conventional imaging Negative",1
same,Number of lesions,"GRPR [4]; Prostate N=5, [68Ga]-NeoB Total, conventional imaging Positive",69
same,Number of lesions,"GRPR [4]; Prostate N=5, [68Ga]-NeoB Total, conventional imaging Total",70
same,lesions identified by conventional imaging also identified by [68Ga]-NeoB,GRPR [4]; Prostate cancer N=5,14.5%
same,Number of lesions,"GRPR [4]; SCL N=1, [68Ga]-NeoB Negative, conventional imaging Positive",1
same,Number of lesions,"GRPR [4]; SCL N=1, [68Ga]-NeoB Negative, conventional imaging Total",1
same,Number of lesions,"GRPR [4]; SCL N=1, [68Ga]-NeoB Positive, conventional imaging Negative",0
same,Number of lesions,"GRPR [4]; SCL N=1, [68Ga]-NeoB Positive, conventional imaging Positive",1
same,Number of lesions,"GRPR [4]; SCL N=1, [68Ga]-NeoB Positive, conventional imaging Total",1
same,Number of lesions,"GRPR [4]; SCL N=1, [68Ga]-NeoB Total, conventional imaging Negative",0
same,Number of lesions,"GRPR [4]; SCL N=1, [68Ga]-NeoB Total, conventional imaging Positive",2
same,Number of lesions,"GRPR [4]; SCL N=1, [68Ga]-NeoB Total, conventional imaging Total",2
same,lesions identified by conventional imaging also identified by [68Ga]-NeoB,GRPR [4]; SCL cancer N=1,50%
same,Number of lesions,"GRPR [4]; overall cancer N=19, Nodal, [68Ga]-NeoB Negative, conventional imaging Positive",36
same,Number of lesions,"GRPR [4]; overall cancer N=19, Nodal, [68Ga]-NeoB Negative, conventional imaging Total",36
same,Number of lesions,"GRPR [4]; overall cancer N=19, Nodal, [68Ga]-NeoB Positive, conventional imaging Negative",1
same,Number of lesions,"GRPR [4]; overall cancer N=19, Nodal, [68Ga]-NeoB Positive, conventional imaging Positive",18
same,Number of lesions,"GRPR [4]; overall cancer N=19, Nodal, [68Ga]-NeoB Positive, conventional imaging Total",19
same,Number of lesions,"GRPR [4]; overall cancer N=19, Nodal, [68Ga]-NeoB Total, conventional imaging Negative",1
same,Number of lesions,"GRPR [4]; overall cancer N=19, Nodal, [68Ga]-NeoB Total, conventional imaging Positive",54
same,Number of lesions,"GRPR [4]; overall cancer N=19, Nodal, [68Ga]-NeoB Total, conventional imaging Total",55
same,Number of lesions,"GRPR [4]; overall cancer N=19, Overall, [68Ga]-NeoB Negative, conventional imaging Positive",167
same,Number of lesions,"GRPR [4]; overall cancer N=19, Overall, [68Ga]-NeoB Negative, conventional imaging Total",167
same,Number of lesions,"GRPR [4]; overall cancer N=19, Overall, [68Ga]-NeoB Positive, conventional imaging Negative",38
same,Number of lesions,"GRPR [4]; overall cancer N=19, Overall, [68Ga]-NeoB Positive, conventional imaging Positive",87
same,Number of lesions,"GRPR [4]; overall cancer N=19, Overall, [68Ga]-NeoB Positive, conventional imaging Total",125
same,Number of lesions,"GRPR [4]; overall cancer N=19, Overall, [68Ga]-NeoB Total, conventional imaging Negative",38
same,Number of lesions,"GRPR [4]; overall cancer N=19, Overall, [68Ga]-NeoB Total, conventional imaging Positive",254
same,Number of lesions,"GRPR [4]; overall cancer N=19, Overall, [68Ga]-NeoB Total, conventional imaging Total",292
same,Number of lesions,"GRPR [4]; overall cancer N=19, Skeletal, [68Ga]-NeoB Negative, conventional imaging Positive",85
same,Number of lesions,"GRPR [4]; overall cancer N=19, Skeletal, [68Ga]-NeoB Negative, conventional imaging Total",85
same,Number of lesions,"GRPR [4]; overall cancer N=19, Skeletal, [68Ga]-NeoB Positive, conventional imaging Negative",12
same,Number of lesions,"GRPR [4]; overall cancer N=19, Skeletal, [68Ga]-NeoB Positive, conventional imaging Positive",17
same,Number of lesions,"GRPR [4]; overall cancer N=19, Skeletal, [68Ga]-NeoB Positive, conventional imaging Total",29
same,Number of lesions,"GRPR [4]; overall cancer N=19, Skeletal, [68Ga]-NeoB Total, conventional imaging Negative",12
same,Number of lesions,"GRPR [4]; overall cancer N=19, Skeletal, [68Ga]-NeoB Total, conventional imaging Positive",102
same,Number of lesions,"GRPR [4]; overall cancer N=19, Skeletal, [68Ga]-NeoB Total, conventional imaging Total",114
same,Number of lesions,"GRPR [4]; overall cancer N=19, Skin/Superficial, [68Ga]-NeoB Negative, conventional imaging Positive",1
same,Number of lesions,"GRPR [4]; overall cancer N=19, Skin/Superficial, [68Ga]-NeoB Negative, conventional imaging Total",1
same,Number of lesions,"GRPR [4]; overall cancer N=19, Skin/Superficial, [68Ga]-NeoB Positive, conventional imaging Negative",0
same,Number of lesions,"GRPR [4]; overall cancer N=19, Skin/Superficial, [68Ga]-NeoB Positive, conventional imaging Positive",2
same,Number of lesions,"GRPR [4]; overall cancer N=19, Skin/Superficial, [68Ga]-NeoB Positive, conventional imaging Total",2
same,Number of lesions,"GRPR [4]; overall cancer N=19, Skin/Superficial, [68Ga]-NeoB Total, conventional imaging Negative",0
same,Number of lesions,"GRPR [4]; overall cancer N=19, Skin/Superficial, [68Ga]-NeoB Total, conventional imaging Positive",3
same,Number of lesions,"GRPR [4]; overall cancer N=19, Skin/Superficial, [68Ga]-NeoB Total, conventional imaging Total",3
same,Number of lesions,"GRPR [4]; overall cancer N=19, Soft Tissus/Visceral, [68Ga]-NeoB Negative, conventional imaging Positive",45
same,Number of lesions,"GRPR [4]; overall cancer N=19, Soft Tissus/Visceral, [68Ga]-NeoB Negative, conventional imaging Total",45
same,Number of lesions,"GRPR [4]; overall cancer N=19, Soft Tissus/Visceral, [68Ga]-NeoB Positive, conventional imaging Negative",25
same,Number of lesions,"GRPR [4]; overall cancer N=19, Soft Tissus/Visceral, [68Ga]-NeoB Positive, conventional imaging Positive",50
same,Number of lesions,"GRPR [4]; overall cancer N=19, Soft Tissus/Visceral, [68Ga]-NeoB Positive, conventional imaging Total",75
same,Number of lesions,"GRPR [4]; overall cancer N=19, Soft Tissus/Visceral, [68Ga]-NeoB Total, conventional imaging Negative",25
same,Number of lesions,"GRPR [4]; overall cancer N=19, Soft Tissus/Visceral, [68Ga]-NeoB Total, conventional imaging Positive",95
same,Number of lesions,"GRPR [4]; overall cancer N=19, Soft Tissus/Visceral, [68Ga]-NeoB Total, conventional imaging Total",120
same,lesions identified by conventional imaging also identified by [68Ga]-NeoB,"GRPR [4]; regardless the cancer type, N=19",34.3%
same,lesions identified by conventional imaging also identified by [68Ga]-NeoB,GRPR [4]; soft tissue and visceral tissue regardless the cancer type,52.6%
